# Assay results from patent US6294580A, “Substituted 4-hydroxy-phenylalcanoic acid derivatives with agonist activity to PPAR-gamma” (Glaxo Wellcome Inc., priority 1996, dated 2001).
# Structures can show the parent of a compound that is named as a salt. Where two headings read alike, the source gives them in different places.
# Columns and labels:
# hPPARgamma = molecular target: T1, hPPARgamma (Homo sapiens, UniProt P37231); test: hPPARgamma Ligand Binding Assay; settings: competition with [3H]-BRL 49,653, room temperature 2 hrs
# T1 construct: 10x-histidine tag (N); made in house; host or cells: E. coli
# T1 sequence (P37231 195-475 isoform P37231-2): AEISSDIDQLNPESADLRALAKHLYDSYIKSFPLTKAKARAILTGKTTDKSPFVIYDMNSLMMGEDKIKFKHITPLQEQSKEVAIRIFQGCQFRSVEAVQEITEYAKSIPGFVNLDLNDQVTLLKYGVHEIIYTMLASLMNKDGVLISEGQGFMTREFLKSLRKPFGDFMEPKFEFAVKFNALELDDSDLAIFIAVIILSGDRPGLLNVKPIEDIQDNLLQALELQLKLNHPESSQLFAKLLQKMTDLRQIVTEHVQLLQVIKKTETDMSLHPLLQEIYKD
# PPARg = test: PPARgamma Transient Cotransfection Assay; type: cell-based; settings: CAT reporter; for EC50: read-out: PPARg EC50
Compound,Ki (hPPARgamma; PPARg Ki) [nM],EC50 (PPARg) [nM],PPARg Fold. Act. (PPARg),Ki (hPPARgamma; read-out: PPARg Ki) [nM]
"CN(CCOc1ccc(CC(Cc2ccccc2)C(=O)O)cc1)c1nc2ccccc2o1 (centres unmarked) [Example 26, 3-{4-[2-(Benzoxazol-2-yl-methyl-amino)-ethoxy]-phenyl}-2-benzyl-propionic acid trifluoroacetate]",1900,670,–,–
"Cc1ccc(NC(Cc2ccc(OCCN(C)c3nc4ccccc4o3)cc2)C(=O)O)c(C(=O)c2ccccc2)c1 (centres unmarked) [Example 19, 3-{4-[2-(benzoxazol-2-yl-methyl-amino)-ethoxy]-phenyl}-2-(2-benzoyl-4-methyl-phenylamino)-propionic acid]",185,65,–,–
"Cc1oc(-c2ccccc2)nc1CCOc1ccc(C[C@H](Nc2ccccc2C(=O)c2ccc[n+]([O-])c2)C(=O)O)cc1 [Example 59, 3-{4-[2-(5-methyl-2-phenyl-oxazol-4-yl)-ethoxy]-phenyl}-2(S)-[2-(pyridine-N-oxide-3-carbonyl)-phenylamino]-propionic acid]",100,95,–,–
"CN(CCOc1ccc(CC(Nc2ccccc2C(=O)C2CCCCC2)C(=O)O)cc1)c1nc2ccccc2o1 (centres unmarked) [Example 24, 3-{4-[2-(Benzoxazol-2-yl-methyl-amino)-ethoxy]-phenyl}-2-(2-cyclohexanecarbonyl-phenylamino)-propionic acid]",30,1,–,–
"CN(CCOc1ccc(CC(Nc2ccccc2C(=O)C2CCCCCC2)C(=O)O)cc1)c1nc2ccccc2o1 (centres unmarked) [Example 49, 3-{4-[2-(Benzoxazol-2-yl-methyl-amino)-ethoxy]-phenyl}-2-(2-cycloheptanecarbonyl-phenylamino)-propionic acid]",80,10,–,–
"CN(CCOc1ccc(CC(Nc2ccccc2C(=O)C2CCCC2)C(=O)O)cc1)c1nc2ccccc2o1 (centres unmarked) [Example 48, 3-{4-[2-(Benzoxazol-2-yl-methyl-amino)-ethoxy]-phenyl}-2-(2-cyclopentanecarbonyl-phenylamino)-propionic acid]",115,20,–,–
O=C(c1ccccc1)c1ccccc1NC(Cc1ccc(OC[C@@H]2CCCN2c2nc3ccccc3o2)cc1)C(=O)O (some centres unmarked) [Example 23],50,1,–,–
"O=C(c1ccccc1)c1sccc1NC(Cc1ccc(OCc2ccccc2)cc1)C(=O)O (centres unmarked) [Example 9, 2-(2-Benzoyl-thiophen-3-yl-amino)-3-(4-benzyloxy-phenyl)-propionic acid]",700,630,–,–
Cc1cccc(C(=O)c2ccccc2NC(Cc2ccc(OCCN(C)c3nc4ccccc4o3)cc2)C(=O)O)c1 (centres unmarked) [Example 80],10,10,–,–
"CC(=CC(=O)c1ccccc1)NC(Cc1ccc(OCCN(C)c2ccccn2)cc1)C(=O)O (centres unmarked) [Example 14, 2-(1-Methyl-oxo-3-phenyl-propenylamino)-3{4-[2-(methyl-pyridin-2-yl-amino)-ethoxy]-phenyl}-propionic acid dicyclohexylamine salt]",80,1,18,–
"Cc1oc(-c2ccccc2)nc1CCOc1ccc(C[C@H](Nc2ccccc2C(=O)c2cc[n+]([O-])cc2)C(=O)O)cc1 [Example 57, 3-{4-[2-(5-methyl-2-phenyl-oxazol-4-yl)-ethoxy]-phenyl}-2(S)-[2-(pyridineN-oxide-4-carbonyl)-phenylamino]-propionic acid]",1240,150,–,–
CN(CCOc1ccc(CC(Nc2ccccc2C(=O)c2cccs2)C(=O)O)cc1)c1nc2ccccc2o1 (centres unmarked) [Example 74],800,55,–,–
"Cc1oc(-c2ccccc2)nc1CCOc1ccc(C[C@H](Nc2ccccc2C(=O)c2ccncc2)C(=O)O)cc1 [Example 56, 3-{4-[2-(5-Methyl-2-phenyl-oxazol-4-yl)-ethoxy]-phenyl}-2(S)-[2-(pyridine-4-carbonyl)-phenylamino]-propionic acid]",10,1,–,–
"Cc1oc(-c2ccccc2)nc1CCOc1ccc(CC(Nc2ccccc2C(=O)c2cccc(N)c2)C(=O)O)cc1 (centres unmarked) [Example 94, 2-[2-(3-amino-benzoyl)-phenylamino]-3-{4-[2-(5-methyl-2-phenyl-oxazol-4-yl)-ethoxy]-phenyl}-propionic acid]",40,10,–,–
"CCOC(=O)C(Cc1ccc(OCCN(C)c2ccccn2)cc1)Nc1ccccc1C(=O)c1ccccc1 (centres unmarked) [Example 13, 2-(2-Benzoyl-phenylamino)-3-{4-[2-(methyl-pyridin-2-yl-amino)-ethoxy]-phenyl}-propionic acid ethyl ester]",1300,60,–,–
"CN(CCOc1ccc(CC(Nc2ccc(Cl)cc2C(=O)c2ccccc2)C(=O)O)cc1)c1nc2ccccc2o1 (centres unmarked) [Example 20, 3-{4-[2-(benzoxazol-2-yl-methyl-amino)-ethoxy]-phenyl}-2-(2-benzoyl-4-chloro-phenylamino)-propionic acid]",180,120,–,–
"COC(=O)c1ccccc1N[C@@H](Cc1ccc(OCCc2ccc(Cl)cc2)cc1)C(=O)O [Example 106, 2(S)-(1-carboxy-2-{4-[2-(4-chloro-phenyl)-ethoxy]-phenyl}-ethylamino)-benzoic acid methyl ester]",140,300,–,–

Compound,Ki (hPPARgamma; PPARg Ki) [nM],EC50 (PPARg) [nM],PPARg Fold. Act. (PPARg),Ki (hPPARgamma; read-out: PPARg Ki) [nM]
"COc1ccc(C(=O)c2ccccc2NC(Cc2ccc(OCCN(C)c3nc4ccccc4o3)cc2)C(=O)O)cc1 (centres unmarked) [Example 110, 3-{4-[2-(Benzoxazol-2-yl-methylamino)-ethoxy]-phenyl}-2-(2-(4-methoxy-benzoyl)-phenylamino)-propionic acid]",50,65,–,–
CN(CCOc1ccc(CC(Nc2ccccc2C(=O)c2ccccc2C(F)(F)F)C(=O)O)cc1)c1nc2ccccc2o1 (centres unmarked) [Example 77],155,65,–,–
"Cc1oc(-c2ccccc2)nc1CCOc1ccc(CC(Nc2ccccc2C(=O)C2CCCCC2)C(=O)O)cc1 (single isomer, unassigned) [Example 54, 2-(2-Cyclohexanecarbonyl-phenylamino)-3-{4-[2-(5-methyl-2-phenyl-oxazol-4-yl)-ethoxy]-phenyl}-propionic acid]",3000,250,–,–
"COC(=O)c1ccccc1N[C@@H](Cc1ccc(OC[C@@H]2CCCN2c2ccc([N+](=O)[O-])cc2)cc1)C(=O)O [Example 47, 2-(1-Carboxy-2-{4-[1-(4-nitro)-phenyl-pyrrolidin-2-ylmethoxy]-phenyl}-ethylamino)-benzoic acid methyl ester]",240,50,–,–
"CN(CCOc1ccc(CC(Nc2c(C(=O)C3CCCCC3)cnn2C)C(=O)O)cc1)c1nc2ccccc2o1 (centres unmarked) [Example 51, 3-{4-[2-(Benzoxazol-2-yl-methyl-amino)-ethoxy]-phenyl}-2-(4-cyclohexanecarbonyl-2-methyl-2H-pyrazol-3-ylamino)-propionic acid]",140,350,–,–
"O=C(c1ccccc1)c1ccccc1NC(Cc1ccc(OCc2csc(-c3ccc(Cl)cc3)n2)cc1)C(=O)O (centres unmarked) [Example 30, 2-(2-Benzoyl-phenylamino)-3-{4-[2-(4-chlorophenyl)-thiazol-4ylmethoxy]-phenyl}-propionic acid]",300,50,–,–
"CN(CCOc1ccc(CC(Nc2cc(F)ccc2C(=O)C2CCCCC2)C(=O)O)cc1)c1nc2ccccc2o1 (centres unmarked) [Example 50, 3-{4-[2-(Benzoxazol-2-yl-methyl-amino)-ethoxy]-phenyl}-2-(2-cyclohexanecarbonyl-5-fluoro-phenylamino)-propionic acid]",390,50,–,–
COc1cccc(C(=O)c2ccccc2NC(Cc2ccc(OCCN(C)c3nc4ccccc4o3)cc2)C(=O)O)c1 (centres unmarked) [Example 78],40,200,–,–
COC(=O)c1ccccc1N[C@@H](Cc1ccc(OCCOc2ccc([N+](=O)[O-])cn2)cc1)C(=O)O [Example 69],–,100,–,290
COC(=O)C(Cc1ccc(OCc2ccccc2)cc1)Nc1ccccc1C(=O)OCc1ccccc1 (centres unmarked) [Example 5],> 3000,9000,10,–
"Cc1ccc(C(=O)c2ccccc2NC(Cc2ccc(OCCN(C)c3nc4ccccc4o3)cc2)C(=O)O)cc1 (centres unmarked) [Example 111, 3-{4-[2-(Benzoxazol-2-yl-methylamino)-ethoxy]-phenyl}-2-(2-(4-methyl-benzoyl)-phenylamino)-propionic acid]",70,10,–,–
"O=C(c1ccccc1)c1ccccc1N[C@@H](Cc1ccc(OC[C@@H]2CSCN2c2nc3ccccc3o2)cc1)C(=O)O [Example 72, 3-[4-(3-Benzoxazol-2-yl-thiazolidin-4(R)-ylmethoxy)-phenyl]-2(S)-(2-benzoyl-phenylamino)-propionic acid]",30,5,–,–
COC(=O)c1ccccc1N[C@@H](Cc1ccc(OCCSc2ccc(Cl)cn2)cc1)C(=O)O [Example 70],–,200,–,250
"O=C(c1ccccc1)c1ccccc1NC(Cc1ccc(OC2CCN(c3nc4ccccc4o3)C2)cc1)C(=O)O (centres unmarked) [Example 55, 3-[4-(1-Benzoxazol-2-yl-pyrrolidin-3-yloxy)-phenyl]-2-(2-benzoyl-phenylamino)-propionic acid]",1400,460,–,–
"COC(=O)c1ccccc1N[C@@H](Cc1ccc(OCCSc2ccc(Cl)cc2)cc1)C(=O)O [Example 46, 2-(1-Carboxy-2-{4-[2-(4-clhorophenylsulfanyl)-ethoxy]-phenyl}-ethylamino)-benzoic acid methyl ester]",750,900,–,–
"O=C(c1ccccc1)c1ccccc1NC(Cc1ccc(OCCn2cnc3ccccc32)cc1)C(=O)O (centres unmarked) [Example 31, 3-[4-(2-Benzoimidazol-1-yl-ethoxy)-phenyl]-2-(2-benzoyl-phenylamino)-propionic acid]",145,450,–,–
